# Patent US12226386B2, “Compositions and methods for treating biofilms” (The Regents of the University of California, priority 2018, dated 2025)
# Test system: bacteria (S. aureus) biofilm and fungal (C. albicans) biofilm
# Assay: sustained inhibition biofilm assay, bacterial and fungal taken together
# Format: cell-based, Staphylococcus aureus; Candida albicans
# Conditions: 1% amino acid
# Protocol: Other amino acids in the blood of animals could combat bacterial and fungal biofilm and therefore may be useful in treating these bacterial and fungal infections that would lie on the external surfaces of infected animals such as humans and could also be used to combat these pathogens on instruments and surfaces that need to be treated. Two types of biofilm assays were performed: a sustained inhibition assay and a disruption assay. The sustained inhibition assay assessed the compound's ability to prevent biofilm development throughout all stages of biofilm formation, while the disruption assay assessed the compound's ability to break up an existing mature biofilm.
# For fungal biofilm assays, all solutions were prepared in RPMI 1640 medium. All bacterial biofilm solutions were prepared in Tryptic Soy Broth (TSB), supplemented with 1% glucose (henceforth referred to as TSB-G). All subsequent procedures were performed in a manner that maintained sterility. A solution of each amino acid to be tested was prepared in weight to volume concentrations ranging from 0.1-5.0%. Amino acids were also tested in combinations. Compound solutions were homogenized with gentle agitation in the dark (4° C., 24 hours) before use.
# Fungal strains were streaked on Yeast Peptone Dextrose (YPD) agar plates and incubated at 30° C. for 48 hours. A single colony from each strain to be tested was inoculated into YPD broth and grown for 12 hours, at 30° C., shaking at 225 rpm. For the fungal biofilm inhibition assay, 1 μl of saturated overnight cell culture was added to either 80 μL of RPMI-1640 or RPMI-1640 supplemented with the amino acid compound solution to be tested, in a 384-well plate. […] Media was carefully aspirated and the biofilm was measured by optical density at 600 nm. […] Media was carefully aspirated and the biofilm was measured by optical density at 600 nm. […]
# Bacterial strains were streaked on Blood Agar plates (5% sheep blood in Tryptic Soy Agar) and incubated at 37° C. for 24 hours. […] Media was carefully aspirated and the biofilm was measured by optical density at 600 nm. […]
row,Compound,Reduce Both
1,"N[C@@H](CCC(=O)O)C(=O)O [Glutamic Acid, L-glutamic acid]",●● (two dots [i.e. ●●] signifies major effect (greater than about 30% change))
2,"N[C@@H](CS)C(=O)O [Cysteine, L-cysteine]",●● (two dots [i.e. ●●] signifies major effect (greater than about 30% change))
3,"N[C@@H](CC(=O)O)C(=O)O [Aspartic Acid, L-aspartic acid]",●● (two dots [i.e. ●●] signifies major effect (greater than about 30% change))
